Drawing on ChEMBL document CHEMBL1909046, “DrugMatrix in vitro pharmacology data”, this text covers IC50 and Ki for four compounds.

Chain of Tyrosine-protein kinase Lck (P06239 whole entry): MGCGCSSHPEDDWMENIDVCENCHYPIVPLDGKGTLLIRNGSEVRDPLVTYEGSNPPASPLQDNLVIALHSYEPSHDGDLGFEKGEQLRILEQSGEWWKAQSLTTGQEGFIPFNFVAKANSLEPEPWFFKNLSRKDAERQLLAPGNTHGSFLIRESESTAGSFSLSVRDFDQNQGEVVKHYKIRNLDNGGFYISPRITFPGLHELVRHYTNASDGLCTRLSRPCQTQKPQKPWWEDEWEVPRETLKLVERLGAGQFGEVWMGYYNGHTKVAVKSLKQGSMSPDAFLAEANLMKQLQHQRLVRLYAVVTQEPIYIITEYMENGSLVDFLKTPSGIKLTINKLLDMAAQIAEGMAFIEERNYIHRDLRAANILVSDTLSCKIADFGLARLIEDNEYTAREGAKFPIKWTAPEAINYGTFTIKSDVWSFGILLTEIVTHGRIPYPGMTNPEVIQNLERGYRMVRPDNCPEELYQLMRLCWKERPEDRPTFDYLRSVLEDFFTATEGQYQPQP
Chain of Mitogen-activated protein kinase 1 (P28482 whole entry): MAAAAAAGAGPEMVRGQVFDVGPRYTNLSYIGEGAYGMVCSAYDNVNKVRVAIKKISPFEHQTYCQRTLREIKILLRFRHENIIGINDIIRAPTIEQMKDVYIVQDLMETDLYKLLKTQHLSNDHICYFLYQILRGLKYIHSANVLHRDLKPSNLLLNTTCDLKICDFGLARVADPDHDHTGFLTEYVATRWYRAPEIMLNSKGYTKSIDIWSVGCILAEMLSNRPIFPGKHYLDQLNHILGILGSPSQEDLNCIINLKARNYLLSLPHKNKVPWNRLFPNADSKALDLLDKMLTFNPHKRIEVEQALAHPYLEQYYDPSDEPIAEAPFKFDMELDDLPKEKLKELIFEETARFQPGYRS

The first data set has as its target T1, D(4) dopamine receptor (Homo sapiens, UniProt P21917).
T1 sequence (P21917 whole entry): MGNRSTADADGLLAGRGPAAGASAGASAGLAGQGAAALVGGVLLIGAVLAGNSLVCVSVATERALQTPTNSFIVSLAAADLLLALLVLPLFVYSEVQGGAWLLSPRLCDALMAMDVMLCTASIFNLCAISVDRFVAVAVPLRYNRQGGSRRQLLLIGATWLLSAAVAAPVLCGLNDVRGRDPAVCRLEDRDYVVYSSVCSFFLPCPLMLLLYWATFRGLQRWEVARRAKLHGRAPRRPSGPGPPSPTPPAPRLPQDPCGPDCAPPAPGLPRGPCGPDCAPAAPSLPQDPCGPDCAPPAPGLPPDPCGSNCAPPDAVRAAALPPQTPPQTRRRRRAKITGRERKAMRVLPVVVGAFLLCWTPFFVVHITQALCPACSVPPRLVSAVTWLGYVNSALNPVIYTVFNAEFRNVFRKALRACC
As to the kind of experiment: DRUGMATRIX: Dopamine D4.2 radioligand binding (ligand: [3H] Spiperone). To be noted: cho-k1; Not Active = under 50% inhibition at 10 µM. The data set is classed as cell membranes, CHO-K1, Membrane.
Consider `Nc1ccn([C@@H]2O[C@H](CO)[C@@H](O)[C@@H]2O)c(=O)n1` [CYTARABINE], for which the IC50 entry is reported as “Not Active”.
Turning to `C[C@@H]1C[C@H]2[C@@H]3CCC4=CC(=O)C=C[C@]4(C)[C@@]3(F)[C@@H](O)C[C@]2(C)[C@@]1(O)C(=O)CO` [DEXAMETHASONE], the IC50 entry was “Not Active”.
As to `CC[C@H]1CN2CCc3cc(OC)c(OC)cc3[C@@H]2C[C@@H]1C[C@H]1NCCc2cc(OC)c(OC)cc21` [EMETINE], the IC50 result is listed as “Not Active”.
On the same count and under the same terms, with `COc1cc([C@@H]2c3cc4c(cc3[C@@H](O[C@@H]3O[C@@H]5CO[C@@H](C)O[C@H]5[C@H](O)[C@H]3O)[C@H]3COC(=O)[C@H]23)OCO4)cc(OC)c1O` [ETOPOSIDE] the entry was “Not Active”.

The target in the next data set is T2, Cytochrome P450 1A2 (Homo sapiens, UniProt P05177). Further: in other assays of this panel Not Active means under 50% inhibition at 10 µM.
T2 sequence (P05177 whole entry): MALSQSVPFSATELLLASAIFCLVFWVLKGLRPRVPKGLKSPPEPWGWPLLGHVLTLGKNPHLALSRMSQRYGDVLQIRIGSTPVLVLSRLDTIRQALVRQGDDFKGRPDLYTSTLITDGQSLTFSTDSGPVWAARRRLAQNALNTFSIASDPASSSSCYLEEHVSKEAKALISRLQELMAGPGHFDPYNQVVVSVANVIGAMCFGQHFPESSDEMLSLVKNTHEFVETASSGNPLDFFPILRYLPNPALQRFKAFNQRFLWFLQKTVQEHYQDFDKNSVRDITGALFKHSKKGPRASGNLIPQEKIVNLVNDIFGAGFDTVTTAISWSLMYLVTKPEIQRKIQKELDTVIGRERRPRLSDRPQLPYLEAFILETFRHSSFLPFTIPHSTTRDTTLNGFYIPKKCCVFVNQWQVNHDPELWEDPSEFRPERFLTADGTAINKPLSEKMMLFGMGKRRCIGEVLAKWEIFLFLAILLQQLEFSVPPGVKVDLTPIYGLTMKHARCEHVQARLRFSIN
Conditions: bti-tn-5b1-4.
Regarding `Nc1ccn([C@@H]2O[C@H](CO)[C@@H](O)[C@@H]2O)c(=O)n1` [CYTARABINE], the IC50 result is recorded as “Not Active” and the Ki result was “Not Active”.
Turning to `C[C@@H]1C[C@H]2[C@@H]3CCC4=CC(=O)C=C[C@]4(C)[C@@]3(F)[C@@H](O)C[C@]2(C)[C@@]1(O)C(=O)CO` [DEXAMETHASONE], the IC50 result is “Not Active” and the Ki entry is “Not Active”.
For the compound `CC[C@H]1CN2CCc3cc(OC)c(OC)cc3[C@@H]2C[C@@H]1C[C@H]1NCCc2cc(OC)c(OC)cc21` [EMETINE], the IC50 entry is recorded as “Not Active” and the Ki entry was “Not Active”.

A further data set addresses Mitogen-activated protein kinase 1 (Homo sapiens, UniProt P28482). As to the kind of experiment: DRUGMATRIX: Protein Serine/Threonine Kinase, ERK2 enzyme inhibition (substrate: Myelin Basic Protein). Conditions: Not Active = under 50% inhibition at 10 µM. Also noted: species or system Escherichia coli.
Consider `Nc1ccn([C@@H]2O[C@H](CO)[C@@H](O)[C@@H]2O)c(=O)n1` [CYTARABINE], for which the IC50 entry is reported as “Not Active”.
On to `C[C@@H]1C[C@H]2[C@@H]3CCC4=CC(=O)C=C[C@]4(C)[C@@]3(F)[C@@H](O)C[C@]2(C)[C@@]1(O)C(=O)CO` [DEXAMETHASONE], for which the IC50 entry is listed as “Not Active”.
Still for that read-out and setting: the same measure for `CC[C@H]1CN2CCc3cc(OC)c(OC)cc3[C@@H]2C[C@@H]1C[C@H]1NCCc2cc(OC)c(OC)cc21` [EMETINE]: “Not Active”.
Still for that read-out and setting: with `COc1cc([C@@H]2c3cc4c(cc3[C@@H](O[C@@H]3O[C@@H]5CO[C@@H](C)O[C@H]5[C@H](O)[C@H]3O)[C@H]3COC(=O)[C@H]23)OCO4)cc(OC)c1O` [ETOPOSIDE] the entry was “Not Active”.

System in a further data set: not listed separately
Briefly: DRUGMATRIX: Glutamate, NMDA, Phencyclidine radioligand binding (ligand: [3H] TCP). The data set is classed as cell membranes, Rattus norvegicus, Wistar, Cerebral cortex, Membrane. Conditions: Not Active = under 50% inhibition at 10 µM.
On to `Nc1ccn([C@@H]2O[C@H](CO)[C@@H](O)[C@@H]2O)c(=O)n1` [CYTARABINE], for which the IC50 entry is “Not Active” and the Ki entry is on record as “Not Active”.
For `C[C@@H]1C[C@H]2[C@@H]3CCC4=CC(=O)C=C[C@]4(C)[C@@]3(F)[C@@H](O)C[C@]2(C)[C@@]1(O)C(=O)CO` [DEXAMETHASONE], the IC50 entry is recorded as “Not Active” and the Ki result was “Not Active”.
`CC[C@H]1CN2CCc3cc(OC)c(OC)cc3[C@@H]2C[C@@H]1C[C@H]1NCCc2cc(OC)c(OC)cc21` [EMETINE]: the IC50 entry is listed as “Not Active” and the Ki entry is “Not Active”.
As for `COc1cc([C@@H]2c3cc4c(cc3[C@@H](O[C@@H]3O[C@@H]5CO[C@@H](C)O[C@H]5[C@H](O)[C@H]3O)[C@H]3COC(=O)[C@H]23)OCO4)cc(OC)c1O` [ETOPOSIDE], the IC50 entry was “Not Active” and the Ki entry is “Not Active”.

The next data set deals with T3, Nitric oxide synthase, inducible (Mus musculus, UniProt P29477).
T3 sequence (P29477 whole entry): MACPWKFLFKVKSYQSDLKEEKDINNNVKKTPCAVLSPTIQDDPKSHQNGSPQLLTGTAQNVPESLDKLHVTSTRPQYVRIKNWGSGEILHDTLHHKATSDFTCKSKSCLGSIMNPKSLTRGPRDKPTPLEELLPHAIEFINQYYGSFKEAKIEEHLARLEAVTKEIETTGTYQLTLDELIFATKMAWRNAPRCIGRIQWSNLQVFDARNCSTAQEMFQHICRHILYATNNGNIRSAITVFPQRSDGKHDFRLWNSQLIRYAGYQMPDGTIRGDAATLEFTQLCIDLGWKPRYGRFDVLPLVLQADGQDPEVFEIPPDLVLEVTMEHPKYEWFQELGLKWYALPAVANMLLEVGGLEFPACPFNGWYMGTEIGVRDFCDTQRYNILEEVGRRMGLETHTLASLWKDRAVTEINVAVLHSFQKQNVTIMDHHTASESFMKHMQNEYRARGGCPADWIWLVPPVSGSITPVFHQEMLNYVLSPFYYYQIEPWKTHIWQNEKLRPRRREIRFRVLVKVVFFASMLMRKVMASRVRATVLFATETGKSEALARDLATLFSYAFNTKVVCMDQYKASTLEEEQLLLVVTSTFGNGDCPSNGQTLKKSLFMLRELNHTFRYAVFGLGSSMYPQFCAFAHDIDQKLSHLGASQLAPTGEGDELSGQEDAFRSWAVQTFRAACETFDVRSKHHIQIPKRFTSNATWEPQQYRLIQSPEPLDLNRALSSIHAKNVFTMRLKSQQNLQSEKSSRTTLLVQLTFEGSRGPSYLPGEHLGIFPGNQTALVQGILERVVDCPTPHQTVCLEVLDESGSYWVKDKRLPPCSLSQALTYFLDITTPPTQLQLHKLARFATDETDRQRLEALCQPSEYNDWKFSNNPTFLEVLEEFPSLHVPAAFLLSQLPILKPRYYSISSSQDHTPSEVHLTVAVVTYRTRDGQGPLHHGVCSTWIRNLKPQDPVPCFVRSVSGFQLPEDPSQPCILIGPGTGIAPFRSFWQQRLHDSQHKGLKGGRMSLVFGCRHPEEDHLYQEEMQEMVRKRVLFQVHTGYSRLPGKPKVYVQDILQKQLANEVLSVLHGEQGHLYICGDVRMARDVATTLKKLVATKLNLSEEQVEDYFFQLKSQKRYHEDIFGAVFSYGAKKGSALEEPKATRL
Also noted: species or system Escherichia coli.
Conditions: not given
Regarding `Nc1ccn([C@@H]2O[C@H](CO)[C@@H](O)[C@@H]2O)c(=O)n1` [CYTARABINE], the IC50 result is “Not Active”.
Still for that read-out and setting: the same measure for `C[C@@H]1C[C@H]2[C@@H]3CCC4=CC(=O)C=C[C@]4(C)[C@@]3(F)[C@@H](O)C[C@]2(C)[C@@]1(O)C(=O)CO` [DEXAMETHASONE]: “Not Active”.
Take `CC[C@H]1CN2CCc3cc(OC)c(OC)cc3[C@@H]2C[C@@H]1C[C@H]1NCCc2cc(OC)c(OC)cc21` [EMETINE]: the IC50 result is reported as “Not Active”.
On the same count and under the same terms, the same measure for `COc1cc([C@@H]2c3cc4c(cc3[C@@H](O[C@@H]3O[C@@H]5CO[C@@H](C)O[C@H]5[C@H](O)[C@H]3O)[C@H]3COC(=O)[C@H]23)OCO4)cc(OC)c1O` [ETOPOSIDE]: “Not Active”.

The next data set addresses Carbonic anhydrase 2 (Homo sapiens, UniProt P00918). Briefly: DRUGMATRIX: Carbonic Anhydrase II enzyme inhibition (substrate: 4-Nitrophenyl acetate (4-NPA)). The data set is classed as tissue-based. Conditions: erythrocyte; Not Active = under 50% inhibition at 10 µM.
Consider `Nc1ccn([C@@H]2O[C@H](CO)[C@@H](O)[C@@H]2O)c(=O)n1` [CYTARABINE], for which the IC50 entry was “Not Active”.
The same measure, in the same setting: the same measure for `C[C@@H]1C[C@H]2[C@@H]3CCC4=CC(=O)C=C[C@]4(C)[C@@]3(F)[C@@H](O)C[C@]2(C)[C@@]1(O)C(=O)CO` [DEXAMETHASONE]: “Not Active”.
Still for that read-out and setting: with `CC[C@H]1CN2CCc3cc(OC)c(OC)cc3[C@@H]2C[C@@H]1C[C@H]1NCCc2cc(OC)c(OC)cc21` [EMETINE] the entry was “Not Active”; with `COc1cc([C@@H]2c3cc4c(cc3[C@@H](O[C@@H]3O[C@@H]5CO[C@@H](C)O[C@H]5[C@H](O)[C@H]3O)[C@H]3COC(=O)[C@H]23)OCO4)cc(OC)c1O` [ETOPOSIDE], “Not Active”.

A further data set addresses Tyrosine-protein kinase Lck (Homo sapiens, UniProt P06239). As to the kind of experiment: DRUGMATRIX: Protein Tyrosine Kinase, LCK enzyme inhibition (substrate: Poly(Glu:Tyr)). The data set is classed as cell-based, Insect cells. Conditions: insect cells; Not Active = under 50% inhibition at 10 µM.
Regarding `Nc1ccn([C@@H]2O[C@H](CO)[C@@H](O)[C@@H]2O)c(=O)n1` [CYTARABINE], the IC50 entry is on record as “Not Active”.
Still for that read-out and setting: the same measure for `C[C@@H]1C[C@H]2[C@@H]3CCC4=CC(=O)C=C[C@]4(C)[C@@]3(F)[C@@H](O)C[C@]2(C)[C@@]1(O)C(=O)CO` [DEXAMETHASONE]: “Not Active”; for `CC[C@H]1CN2CCc3cc(OC)c(OC)cc3[C@@H]2C[C@@H]1C[C@H]1NCCc2cc(OC)c(OC)cc21` [EMETINE]: “Not Active”.
On the same count and under the same terms, the same measure for `COc1cc([C@@H]2c3cc4c(cc3[C@@H](O[C@@H]3O[C@@H]5CO[C@@H](C)O[C@H]5[C@H](O)[C@H]3O)[C@H]3COC(=O)[C@H]23)OCO4)cc(OC)c1O` [ETOPOSIDE]: “Not Active”.
